Measured values published in patent publication US10208033B2, “β-carboline, dihydro-β-carboline and tetrahydro-β-carboline alkaloid derivatives and preparation methods same and use in aspects of preventing and treating plant viruses, fungicides and insecticides” (NANKAI UNIVERSITY, priority 2013, dated 2019).
In brackets after ≈: the same amount, converted by molar mass.

What was measured:
Lipaphis erysimi = conditions: in vivo; cited from earlier work
culex pipiens larvae = conditions: in vivo; cited from earlier work

Row | Structure (SMILES) | LC50 against Lipaphis erysimi (Lipaphis erysimi) | LC50 against culex pipiens larvae (culex pipiens larvae) | melting point
1 | COC(=O)c1cc2c([nH]c3ccccc32)c(-c2ccccc2)n1 | 53.16 µg/mL (≈ 176 µM) | 20.82 µg/mL (≈ 68.9 µM) | 
2 | COC(=O)C1Cc2c([nH]c3ccccc23)C(c2ccccc2)N1 (stereo not drawn) | 68.05 µg/mL (≈ 222 µM) | 23.98 µg/mL (≈ 78.3 µM) | 
3 | Cc1nc(C=O)cc2c1[nH]c1ccccc12 [Ia-13, 1-methyl-pyridino [3,4-b] indol-3-formaldehyde] |  |  | 194 to 196 °C
4 | CC[C@@H]1N[C@H](C(=O)O)Cc2c1[nH]c1ccccc21 [Ib-3, (1S, 3S)-1-ethyl-2,3,4,9-tetrahydropyridino [3,4-b] indol-3-formic acid] |  |  | 277 to 280 °C
